Patent US20060069132A1, “Azolecarboxamide herbicides” (priority 2004, published 2006)

Tests used:
ducksalad = assay: Test B flooded paddy test; type: in vivo, Heteranthera limosa; details: 1000 g ai/ha, scale 0 to 100 (0 no effect, 100 complete control)
Outline: (§1)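 Postemergence plants were sprayed with formulated test chemicals at 2 to 18 cm height (1- to 4-leaf stage); paddy species were grown to the 2-leaf stage. After 13 to 15 days in a greenhouse, injury was rated visually against untreated controls on a 0–100 scale (0 = no effect, 100 = complete control).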

wild oat = assay: Test B postemergence herbicide test; type: in vivo, Avena fatua
Outline: (§2)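 Scale 0–100: zero equals no visible effect, 100 complete control, judged by eye relative to controls. Timing: 13 to 15 days in greenhouse post-treatment. Growth stage at spraying: two leaves (paddy) or one to four leaves, 2–18 cm (postemergence).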

cocklebur = assay: Test B pre-/postemergence herbicide test; type: in vivo, Xanthium strumarium
Outline: (§3)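 Seeds were planted and treated preemergence with compounds formulated in a non-phytotoxic solvent mixture containing surfactant, while plants at the 1- to 4-leaf stage (2 to 18 cm) received postemergence sprays. Flooded paddy plants were grown to the 2-leaf stage. After 13 to 15 days in a greenhouse, injury was visually rated 0–100 against untreated controls.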

morningglory = assay: Test B pre-/postemergence herbicide test; type: in vivo, Ipomoea coccinea
Outline: as §3

large crabgrass = assay: Test B pre-/postemergence herbicide test; type: in vivo, Digitaria sanguinalis
Outline: (§4)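 Flooded paddy rice and barnyardgrass were treated at the 2-leaf stage; upland plantings received compound either on sown seed or on 1- to 4-leaf seedlings. All were kept 13–15 days in a greenhouse and scored visually, 0–100, relative to untreated plants.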

[1] = test system: small flower umbrella sedge; assay: Test B flooded paddy test; type: in vivo, Cyperus difformis; details: 1000 g ai/ha, scale 0 to 100 (0 no effect, 100 complete control)
Outline: as §1

pigweed = assay: Test B pre-/postemergence herbicide test; type: in vivo, Amaranthus retroflexus
Outline: as §4

barnyardgrass [2] = assay: Test B pre-/postemergence herbicide test; type: in vivo, Echinochloa crus-galli
Outline: as §3

wheat = assay: Test B postemergence herbicide test; type: in vivo, Triticum aestivum; design: key to Wheat plant response rating: 0 = no effect, 100 = complete control
Outline: as §2

lambsquarters = assay: Test B pre-/postemergence herbicide test; type: in vivo, Chenopodium album
Outline: as §4

velvetleaf = assay: Test B pre-/postemergence herbicide test; type: in vivo, Abutilon theophrasti
Outline: as §4

blackgrass = assay: Test B postemergence herbicide test; type: in vivo, Alopecurus myosuroides
Outline: as §1

barnyardgrass [3] = assay: Test B flooded paddy test; type: in vivo, Echinochloa crus-galli; details: 1000 g ai/ha, scale 0 to 100 (0 no effect, 100 complete control)
Outline: as §1

Surinam grass = assay: Test B pre-/postemergence herbicide test; type: in vivo, Urochloa decumbens
Outline: as §4

giant foxtail = assay: Test B pre-/postemergence herbicide test; type: in vivo, Setaria faberi
Outline: as §4

rice = assay: Test B flooded paddy test; type: in vivo, Oryza sativa; details: 1000 g ai/ha, scale 0 to 100 (0 no effect, 100 complete control)
Outline: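 After treating 2-leaf paddy plants or 2–18 cm postemergence plants (1 to 4 leaves) with formulated chemical, researchers kept them in a greenhouse for 13–15 days. Effects were judged visually versus controls: 0 indicates none, 100 total control.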

corn = assay: Test B pre-/postemergence herbicide test; type: in vivo, Zea mays
Outline: as §4

[4] = Postemergence, 250 g ai/ha, scale 0 (no effect) to 100 (complete control)
[5] = postemergence, 62 g ai/ha, scale 0 to 100
[6] = 125 g ai/ha, visual rating, scale 0 (no effect) to 100 (complete control), postemergence
[7] = postemergence, 500 g ai/ha, scale 0 to 100, 0 is no effect, 100 is complete control
[8] = 125 g ai/ha, 0 is no effect, 100 is complete control, preemergence
[9] = 500 g ai/ha, visual rating, 0 = no effect, 100 = complete control, preemergence

CCN(CC)C(=O)c1cccc(NC(=O)c2cn(C(C)(C)C)nc2C(F)(F)F)c1 [Compound 191]
Ducksalad plant response rating (ducksalad; visual rating, 13 to 15 days): 20
Oat, Wild plant response rating (wild oat; [4]): 20
Oat, Wild plant response rating (wild oat; [5]): 10
Cocklebur plant response rating (cocklebur; [4]): 10
Cocklebur plant response rating (cocklebur; [5]): 0
Morningglory plant response rating (morningglory; [4]): 90
Morningglory plant response rating (morningglory; [5]): 40
Crabgrass, Large plant response rating (large crabgrass; [4]): 20
Crabgrass, Large plant response rating (large crabgrass; [5]): 20
Sedge, Umbrella plant response rating ([1]; visual rating, 13 to 15 days): 90
Pigweed plant response rating (pigweed; [4]): 70
Pigweed plant response rating (pigweed; [5]): 30
Barnyardgrass plant response rating (barnyardgrass [2]; [4]): 10
Barnyardgrass plant response rating (barnyardgrass [2]; [5]): 0
Wheat plant response rating (wheat; 250 g ai/ha, scale 0 to 100, 0 no effect, 100 complete control, preemergence): 0
Wheat plant response rating (wheat; [4]): 0
Wheat plant response rating (wheat; [5]): 0
Lambsquarters plant response rating (lambsquarters; [4]): 80
Lambsquarters plant response rating (lambsquarters; [5]): 60
Velvetleaf plant response rating (velvetleaf; [4]): 20
Velvetleaf plant response rating (velvetleaf; [5]): 10
Blackgrass plant response rating (blackgrass; [4]): 10
Blackgrass plant response rating (blackgrass; [5]): 0
Barnyardgrass plant response rating (barnyardgrass [3]; visual rating, 13 to 15 days): 20
Surinam Grass plant response rating (Surinam grass; [4]): 10
Surinam Grass plant response rating (Surinam grass; [5]): 10
Foxtail, Giant plant response rating (giant foxtail; [4]): 20
Foxtail, Giant plant response rating (giant foxtail; [5]): 10
Rice plant response rating (rice; visual rating, 13 to 15 days): 0
Corn plant response rating (corn; [4]): 10
Corn plant response rating (corn; [5]): 10

CCNC(=O)c1ccc(F)c(NC(=O)c2cn(C(C)(C)C)nc2C)c1 [Compound 345]
Ducksalad plant response rating (ducksalad): 70
Oat, Wild plant response rating (wild oat; [6]): 0
Oat, Wild plant response rating (wild oat; [7]): 10
Plant response rating (0 to 100 scale), Cocklebur (cocklebur; [8]): 0
Cocklebur plant response rating (cocklebur; [6]): 0
Plant response rating, Cocklebur (cocklebur; [9]): 10
Cocklebur plant response rating (cocklebur; [7]): 0
Plant response rating (0 to 100 scale), Morningglory (morningglory; [8]): 20
Morningglory plant response rating (morningglory; [6]): 10
Plant response rating, Morningglory (morningglory; [9]): 50
Morningglory plant response rating (morningglory; [7]): 10
Plant response rating (0 to 100 scale), Crabgrass, Large (large crabgrass; [8]): 30
Crabgrass, Large plant response rating (large crabgrass; [6]): 0
Plant response rating, Crabgrass, Large (large crabgrass; [9]): 90
Crabgrass, Large plant response rating (large crabgrass; [7]): 0
Sedge, Umbrella plant response rating [1]: 80
Plant response rating (0 to 100 scale), Pigweed (pigweed; [8]): 60
Pigweed plant response rating (pigweed; [6]): 20
Plant response rating, Pigweed (pigweed; [9]): 100
Pigweed plant response rating (pigweed; [7]): 20
Plant response rating (0 to 100 scale), Barnyardgrass (barnyardgrass [2]; [8]): 20
Barnyardgrass plant response rating (barnyardgrass [2]; [6]): 0
Plant response rating, Barnyardgrass (barnyardgrass [2]; [9]): 30
Barnyardgrass plant response rating (barnyardgrass [2]; [7]): 0
Wheat plant response rating (wheat; [6]): 0
Wheat plant response rating (wheat; [7]): 0
Plant response rating (0 to 100 scale), Lambsquarters (lambsquarters; [8]): 70
Lambsquarters plant response rating (lambsquarters; [6]): 20
Plant response rating, Lambsquarters (lambsquarters; [9]): 100
Lambsquarters plant response rating (lambsquarters; [7]): 20
Plant response rating (0 to 100 scale), Velvetleaf (velvetleaf; [8]): 30
Velvetleaf plant response rating (velvetleaf; [6]): 10
Velvetleaf plant response rating (velvetleaf; [7]): 10
Blackgrass plant response rating (blackgrass; [6]): 0
Blackgrass plant response rating (blackgrass; [7]): 0
Barnyardgrass plant response rating (barnyardgrass [3]): 30
Plant response rating (0 to 100 scale), Surinam Grass (Surinam grass; [8]): 20
Surinam Grass plant response rating (Surinam grass; [6]): 0
Plant response rating, Surinam Grass (Surinam grass; [9]): 70
Surinam Grass plant response rating (Surinam grass; [7]): 0
Plant response rating (0 to 100 scale), Foxtail, Giant (giant foxtail; [8]): 10
Foxtail, Giant plant response rating (giant foxtail; [6]): 0
Plant response rating, Foxtail, Giant (giant foxtail; [9]): 30
Foxtail, Giant plant response rating (giant foxtail; [7]): 0
Rice plant response rating (rice): 40
Plant response rating (0 to 100 scale), Corn (corn; [8]): 0
Corn plant response rating (corn; [6]): 0
Plant response rating, Corn (corn; [9]): 10
Corn plant response rating (corn; [7]): 0
